Assay results from patent publication US11466006B2, “Dual selective PI3 delta and gamma kinase inhibitors” (Rhizen Pharmaceuticals SA, priority 2013, dated 2022).

Legend:
[1] = biological target: Pi3K γ (Homo sapiens, UniProt P48736); assay: Fluorescent (HTRF) determination of PI3 kinase enzyme activity, gamma isoform; format: biochemical; set-up: purchased Millipore (assay kit); details: Table 1, unit printed in cell; read-out: IC50 Pi3K γ
Source text: (§1) Phosphoinositide 3 kinases (PI3K) belong to a class of lipid kinases that play a critical role in the regulation of several key cellular processes. The PI3K are capable of phosphorylating the 3-hydroxy position of phosphoinositols thereby generating second messengers involved in downstream signalling events. The homogenous time resolved fluorescence (HTRF) assay allows detection of 3,4,5-triphosphate (PIP3) formed as a result of phosphorylation of phosphotidylinositol 4,5-biphosphate (PIP2) by PI3K isoforms such as α, β, γ or δ.
(§2) PI3K isoform activity for α, β, γ or δ was determined using a PI3K human HTRF™ Assay Kit (Millipore, Billerica, Mass.) with modifications. All incubations were carried out at room temperature. Briefly, 0.5 μl of 40× inhibitor (in 100% DMSO) or 100% DMSO were added to each well of a 384-well white plate (Greiner Bio-One, Monroe, N.C.) containing 14.5 μl 1× reaction buffer /PIP2 (10 mM MgCl2, 5 mM DTT, 1.38 μM PIP2) mix with or without enzyme, followed by 5 μl/well of 400 μM ATP and incubated for an additional 30 minutes. Reaction was terminated by adding 5 μl/well stop solution (Millipore, Billerica, Mass.). […] HRTF ratio was measured on a microplate reader (BMG Labtech., Germany) at an excitation wavelength of 337 nm and emission wavelengths of 665 and 615 nm with an integration time of 400 msec counting delay of 50 msec.

[2] = biological target: PI3Kδ (Homo sapiens, UniProt O00329); assay: Fluorescent (HTRF) determination of PI3 kinase enzyme activity, delta isoform; format: biochemical; set-up: purchased Millipore (assay kit); details: Table 1, unit printed in cell; read-out: IC50 Pi3Kδ
Chain of PI3Kδ (O00329 whole entry, canonical isoform): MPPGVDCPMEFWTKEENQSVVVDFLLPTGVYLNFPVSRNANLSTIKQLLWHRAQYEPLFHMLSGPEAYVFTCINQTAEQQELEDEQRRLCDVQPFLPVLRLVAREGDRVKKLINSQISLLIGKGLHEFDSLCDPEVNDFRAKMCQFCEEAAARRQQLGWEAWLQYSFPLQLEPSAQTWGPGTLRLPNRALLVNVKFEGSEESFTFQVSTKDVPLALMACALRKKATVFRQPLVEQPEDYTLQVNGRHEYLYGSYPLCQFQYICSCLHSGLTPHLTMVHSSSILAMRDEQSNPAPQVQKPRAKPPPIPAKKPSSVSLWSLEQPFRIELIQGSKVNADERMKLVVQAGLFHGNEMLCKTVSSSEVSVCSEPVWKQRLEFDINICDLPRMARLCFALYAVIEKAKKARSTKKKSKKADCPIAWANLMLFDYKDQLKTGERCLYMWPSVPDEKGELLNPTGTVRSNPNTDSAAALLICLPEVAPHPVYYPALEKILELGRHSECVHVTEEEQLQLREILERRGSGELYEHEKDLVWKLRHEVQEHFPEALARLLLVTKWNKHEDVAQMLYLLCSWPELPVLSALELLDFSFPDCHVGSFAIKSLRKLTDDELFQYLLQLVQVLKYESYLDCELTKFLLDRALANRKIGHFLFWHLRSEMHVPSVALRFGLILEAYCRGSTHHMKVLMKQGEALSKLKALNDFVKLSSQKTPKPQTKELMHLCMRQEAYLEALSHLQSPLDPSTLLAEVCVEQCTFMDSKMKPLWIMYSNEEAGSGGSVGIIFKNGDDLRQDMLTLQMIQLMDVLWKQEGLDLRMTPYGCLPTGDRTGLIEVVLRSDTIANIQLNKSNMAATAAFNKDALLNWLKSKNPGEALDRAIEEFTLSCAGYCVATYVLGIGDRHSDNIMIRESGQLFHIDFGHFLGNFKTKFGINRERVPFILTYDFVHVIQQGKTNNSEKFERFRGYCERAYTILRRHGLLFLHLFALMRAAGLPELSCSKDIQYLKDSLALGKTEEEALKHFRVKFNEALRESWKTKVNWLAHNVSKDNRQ
Chain of PI3Kδ (P27986 whole entry partner, canonical isoform): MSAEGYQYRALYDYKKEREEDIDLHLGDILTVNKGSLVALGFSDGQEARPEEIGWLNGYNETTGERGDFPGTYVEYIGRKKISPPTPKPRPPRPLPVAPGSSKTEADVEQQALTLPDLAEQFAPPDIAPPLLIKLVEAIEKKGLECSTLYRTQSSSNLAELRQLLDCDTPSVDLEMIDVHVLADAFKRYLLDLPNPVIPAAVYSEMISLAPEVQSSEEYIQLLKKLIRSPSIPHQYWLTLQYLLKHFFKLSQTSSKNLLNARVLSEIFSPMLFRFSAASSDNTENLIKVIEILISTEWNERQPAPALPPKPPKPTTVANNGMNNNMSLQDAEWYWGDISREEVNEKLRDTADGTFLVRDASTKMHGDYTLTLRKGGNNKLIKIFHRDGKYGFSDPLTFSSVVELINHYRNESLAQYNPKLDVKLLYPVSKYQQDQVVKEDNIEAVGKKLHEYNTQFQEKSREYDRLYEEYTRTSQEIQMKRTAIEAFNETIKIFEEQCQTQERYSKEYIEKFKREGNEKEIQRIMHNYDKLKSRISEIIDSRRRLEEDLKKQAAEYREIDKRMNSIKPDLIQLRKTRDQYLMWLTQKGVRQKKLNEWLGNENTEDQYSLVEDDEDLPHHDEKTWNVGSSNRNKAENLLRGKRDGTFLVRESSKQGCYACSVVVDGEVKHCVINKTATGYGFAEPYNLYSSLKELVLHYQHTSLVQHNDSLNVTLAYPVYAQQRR
Source text: as §1, §2

[3] = reported at 55th ASH Annual Meeting 2013; cited from earlier work

Chain of Pi3K γ (P48736 whole entry, canonical isoform): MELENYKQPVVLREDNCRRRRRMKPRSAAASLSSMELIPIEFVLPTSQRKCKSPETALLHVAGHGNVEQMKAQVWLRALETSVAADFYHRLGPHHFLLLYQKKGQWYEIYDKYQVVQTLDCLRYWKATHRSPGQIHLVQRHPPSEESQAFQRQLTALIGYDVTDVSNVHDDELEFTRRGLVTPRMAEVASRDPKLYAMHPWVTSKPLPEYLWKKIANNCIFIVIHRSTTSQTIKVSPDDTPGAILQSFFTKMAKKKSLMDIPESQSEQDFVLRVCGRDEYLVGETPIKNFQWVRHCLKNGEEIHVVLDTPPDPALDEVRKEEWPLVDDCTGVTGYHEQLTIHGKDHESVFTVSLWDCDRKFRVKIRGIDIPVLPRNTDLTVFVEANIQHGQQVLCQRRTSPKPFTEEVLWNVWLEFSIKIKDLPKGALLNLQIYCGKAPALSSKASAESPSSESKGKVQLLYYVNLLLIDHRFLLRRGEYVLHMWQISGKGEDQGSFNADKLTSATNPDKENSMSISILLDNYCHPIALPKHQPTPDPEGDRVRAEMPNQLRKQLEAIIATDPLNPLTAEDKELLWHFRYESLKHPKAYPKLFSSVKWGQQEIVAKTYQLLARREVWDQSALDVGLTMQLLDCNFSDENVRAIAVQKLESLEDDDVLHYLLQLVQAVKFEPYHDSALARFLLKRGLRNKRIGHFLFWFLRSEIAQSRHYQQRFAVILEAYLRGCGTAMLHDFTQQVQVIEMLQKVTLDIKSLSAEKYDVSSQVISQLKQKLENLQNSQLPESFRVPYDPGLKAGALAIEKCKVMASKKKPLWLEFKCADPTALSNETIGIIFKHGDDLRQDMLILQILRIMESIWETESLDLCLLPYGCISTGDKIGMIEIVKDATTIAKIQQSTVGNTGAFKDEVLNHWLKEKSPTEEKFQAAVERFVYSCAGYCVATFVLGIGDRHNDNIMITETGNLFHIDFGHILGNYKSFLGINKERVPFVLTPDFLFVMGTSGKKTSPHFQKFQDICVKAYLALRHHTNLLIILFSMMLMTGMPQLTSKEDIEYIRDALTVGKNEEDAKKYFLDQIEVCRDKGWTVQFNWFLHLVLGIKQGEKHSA

CC[C@@H](Nc1ncnc2[nH]cnc12)c1oc2ccccc2c(=O)c1-c1cccc(F)c1 [Compound A2, (R)-2-(1-(9H-purin-6-ylamino)propyl)-3-(3-fluorophenyl)-4H-chromen-4-one]
IC50 [1]: > 10 µM
IC50 [2]: > 10 µM

C[C@H](Nc1ncnc2[nH]cnc12)c1cc2cccc(Cl)c2c(=O)n1-c1ccccc1 [IPI-45]
maximum tolerated dose (MTD) [3]: 75 mg BID
